For assay [1], the system named is Aspergillus niger glucoamylase II. Nature of the assay: Kinetic constants of glucoamylases (release of glucose from substrate). In kind it is biochemical. The conditions noted are these: Table VI. As for the experimental part:
In assaying the rate of release of glucose from starch, pullulan or maltose, enzyme solution (culture solution) (0.1 ml) undiluted or diluted up to 100-fold, was incubated with substrate solution (0.5 ml) for 5 to 20 minutes at 37° C. […]. This reaction was terminated and the color developed by adding 50% HCl solution (2 ml). Substrates employed were pullulan, maltose and J. T. Baker Starch (Lintner) Soluble all at 5 mg/ml concentration and in 0.1 M sodium acetate buffer pH 4.3. α-amylase was assayed by the method described in Marshall, J.J., et al, Clinica Chemica Acta, 76, 277 (1977).
The relative rates of hydrolysis of several glucooligosaccharides and polysaccharides are shown in Table V based upon data shown in FIG. 6-11. Results are compared to those obtained using Aspergillus niger glucoamylase II. […] Table VI provides the kinetic constants of the Cladosporium resinae glucoamylases and Asperigillus niger glucoamylase.

Assay [2] relates to Cladosporium resinae glucoamylase S. The description is as above. The conditions noted are these: Table VI. The assay is classed as biochemical, Cladosporium resinae (ATCC No. 20495).
Description: In assaying the rate of release of glucose from starch, pullulan or maltose, enzyme solution (culture solution) (0.1 ml) undiluted or diluted up to 100-fold, was incubated with substrate solution (0.5 ml) for 5 to 20 minutes at 37° C. for 1 hour. This reaction was terminated and the color developed by adding 50% HCl solution (2 ml). Substrates employed were pullulan, maltose and J. T. Baker Starch (Lintner) Soluble all at 5 mg/ml concentration and in 0.1 M sodium acetate buffer pH 4.3. α-amylase was assayed by the method described in Marshall, J.J., et al, Clinica Chemica Acta, 76, 277 (1977).

For one molecule, VMAX results are on record in patent US4318989A, “Starch-degrading enzymes from Cladosporium resinae” (Lifeline Products, Inc., priority 1980, dated 1982).

For the molecule `OC[C@H]1O[C@H](O[C@H]2[C@H](O)[C@@H](O)C(O)O[C@@H]2CO)[C@H](O)[C@@H](O)[C@@H]1O` (mixture of isomers) [Maltose], the VMAX in assay [1] is on record as 4.8 μmoles glucose released per mi; in assay [2], 2.9 μmoles glucose released per mi.
